# In patent US20120183482A1, “MELANIN PRODUCTION INHIBITOR” (FUJIFILM CORPORATION, priority 2009, published 2012):
# Legend:
# B16 melanoma cells [1] = experiment: Cytotoxicity test (MTT assay); type: cell-based; details: for Cell survival rate: 72 hours, no sample = 100
# Procedure: B16 melanoma cells were seeded on 10% (v/v) FBS-containing MEM medium so as to be 1.25×10^5 cells/well in a 24-well culture plate and were cultivated for 24 hours in a usual manner.
# (§1) After the pre-cultivation, the medium was replaced with a test medium and cultivation was carried out for 72 hours. As the test medium, there was employed a medium obtained by adding 0.25 mmol/L of theophylline, 0.5% (v/v) of dimethyl sulfoxide to the medium for the pre-cultivation, and each of various evaluation samples so as to be a concentration described in Table.
# After the cultivation was finished, the cells were washed with PBS and then a 0.5 mg/mL MTT solution was added in an amount of 500 μL/well and the temperature was kept for 2 hours in an incubator. Thereafter, 1.5 mL of dimethyl sulfoxide was added thereto and then absorbance at a wavelength of 570 nm was measured and taken as an index of the number of living cells.
# A cell revival rate (%) in the case where the evaluation sample was added was determined, the number of living cells in the case where no evaluation sample was added being regarded as 100.
# B16 melanoma cells [2] = experiment: Melanin production inhibition test; type: cell-based; details: for Melanin Production: no sample = 100; for IC50: Mus musculus, B16, read out from the melanin production inhibition curves (FIG. 1), read-out: IC50 values at which 50% of the melanin production was inhibited
# Procedure: B16 melanoma cells were seeded on 10% (v/v) FBS-containing MEM medium (minimum basal medium containing fetal bovine serum) so as to be 2.5×10^5 cells/well in a 12-well culture plate and were cultivated for 24 hours in a usual manner.
# as §1
# The Salacia crude extract was prepared by the following method. After 0.5 kg of root and trunk parts of Salacia reticulate, Salacia oblonga, and Salacia chinensis were pulverized, 10 L of water was added thereto and extraction was performed under conditions of 100° C. and 1 hour. After the obtained extract solution was filtrated through a 100-mesh filter, spray drying was performed and a product obtained as 50 g of an extract powder was used.
# As ellagic acid, ellagic acid dihydrate manufactured by Wako Pure Chemical Industries, Ltd. was used.
# As arbutin, β-arbutin manufactured by Sigma-Aldrich was used.
# After the cultivation was finished, the cells were washed with PBS (phosphate buffer) and then a 1 mol/L aqueous sodium hydroxide solution containing 10% (v/v) dimethyl sulfoxide was added thereto. After the whole was subjected to an ultrasonic treatment at 50° C. for 30 minutes, absorbance of the solution at a wavelength of 400 nm was measured and was taken as a melanin amount in a well. Moreover, at the same time, measurement of the number of living cells by MTT assay was carried out in another culture plate (test conditions are in accordance to Example 2). Finally, the melanin amount in the well was normalized by the measurement value by the MTT assay and the resulting amount was taken as a melanin amount per unit cell.
# A melanin production inhibition rate (%) in the case where the evaluation sample was added was determined, the melanin amount in the case where no evaluation sample was added being regarded as 100.
# [3] = high concentration region, data are not shown
smiles,measurement,setting,value
"O=S(=O)([O-])O[C@@H](CO)[C@H](O)C[S@+]1C[C@@H](O)[C@H](O)[C@H]1CO [Salacinol, salacinol]",Cell survival rate,B16 melanoma cells [1]; 1.998 μg/mL,89.6%
same,Cell survival rate,B16 melanoma cells [1]; 6.66 μg/mL,85.0%
same,Cell survival rate,B16 melanoma cells [1]; 19.98 μg/mL,87.9%
same,Cell survival rate,B16 melanoma cells [1]; 66.6 μg/mL,78.8%
same,cytotoxicity (in words),B16 melanoma cells [1]; concentration region up to 66.6 μg/mL,almost no cytotoxicity
same,Melanin Production,"B16 melanoma cells [2]; 1.998 μg/mL, 72 hours, melanin amount per unit cell",71%
same,Melanin Production,"B16 melanoma cells [2]; 6.66 μg/mL, 72 hours",50%
same,Melanin Production,"B16 melanoma cells [2]; 19.98 μg/mL, 72 hours",34%
same,melanin production inhibitory effect (in words),"B16 melanoma cells [2]; B16 melanoma cells, 72 hours",concentration-dependent and remarkable melanin production inhibitory effect
same,IC50,B16 melanoma cells [2],6.3 µg/mL
COc1ccc(C(=O)[O-])c(O)c1.[K+] [Potassium 4-methoxysalicylate],cytotoxicity (in words),B16 melanoma cells [1]; [3],cytotoxicity was observed
same,Melanin Production,"B16 melanoma cells [2]; 123.69 μg/mL, 72 hours",46.0%
same,Melanin Production,"B16 melanoma cells [2]; 412.3 μg/mL, 72 hours",20.1%
same,IC50,B16 melanoma cells [2],80 µg/mL
"O=c1oc2c(O)c(O)cc3c(=O)oc4c(O)c(O)cc1c4c23 [Ellagic acid, ellagic acid dihydrate]",Cell survival rate,B16 melanoma cells [1]; 0.67646 μg/mL,117.4%
same,Cell survival rate,B16 melanoma cells [1]; 2.02938 μg/mL,107.3%
same,Cell survival rate,B16 melanoma cells [1]; 6.7646 μg/mL,48.1%
same,Cell survival rate,B16 melanoma cells [1]; 20.2938 μg/mL,25.8%
same,cytotoxicity (in words),B16 melanoma cells [1]; high concentration region (up to 20.3 μg/mL),exhibited cytotoxicity
same,Melanin Production,"B16 melanoma cells [2]; 0.67646 μg/mL, 72 hours",79%
same,Melanin Production,"B16 melanoma cells [2]; 2.02938 μg/mL, 72 hours",33%
same,IC50,B16 melanoma cells [2],1.5 µg/mL
O=c1cc(CO)occ1O [Kojic acid],cytotoxicity (in words),B16 melanoma cells [1]; [3],cytotoxicity was observed
same,Melanin Production,"B16 melanoma cells [2]; 8.5266 μg/mL, 72 hours",83.6%
same,Melanin Production,"B16 melanoma cells [2]; 28.422 μg/mL, 72 hours",77.2%
same,Melanin Production,"B16 melanoma cells [2]; 85.266 μg/mL, 72 hours",72.8%
same,Melanin Production,"B16 melanoma cells [2]; 284.22 μg/mL, 72 hours",43.4%
same,IC50,B16 melanoma cells [2],240 µg/mL
"OC[C@H]1O[C@@H](Oc2ccc(O)cc2)[C@H](O)[C@@H](O)[C@@H]1O [Arbutin, β-arbutin]",cytotoxicity (in words),B16 melanoma cells [1]; [3],cytotoxicity was observed
same,Melanin Production,"B16 melanoma cells [2]; 16.338 μg/mL, 72 hours",69.5%
same,Melanin Production,"B16 melanoma cells [2]; 54.46 μg/mL, 72 hours",49.9%
same,Melanin Production,"B16 melanoma cells [2]; 163.38 μg/mL, 72 hours",28.4%
same,Melanin Production,"B16 melanoma cells [2]; 544.6 μg/mL, 72 hours",20.7%
same,IC50,B16 melanoma cells [2],54 µg/mL
